Reference: ChEMBL document CHEMBL1909046, “DrugMatrix in vitro pharmacology data”

What was measured:
[1] = target: T1, Alpha-2C adrenergic receptor (Homo sapiens, UniProt P18825); experiment: DRUGMATRIX: Adrenergic Alpha-2C radioligand binding (ligand: [3H] MK-912); type: cell membranes, Sf9, Membrane; settings: sf9
T1 sequence (P18825 whole entry): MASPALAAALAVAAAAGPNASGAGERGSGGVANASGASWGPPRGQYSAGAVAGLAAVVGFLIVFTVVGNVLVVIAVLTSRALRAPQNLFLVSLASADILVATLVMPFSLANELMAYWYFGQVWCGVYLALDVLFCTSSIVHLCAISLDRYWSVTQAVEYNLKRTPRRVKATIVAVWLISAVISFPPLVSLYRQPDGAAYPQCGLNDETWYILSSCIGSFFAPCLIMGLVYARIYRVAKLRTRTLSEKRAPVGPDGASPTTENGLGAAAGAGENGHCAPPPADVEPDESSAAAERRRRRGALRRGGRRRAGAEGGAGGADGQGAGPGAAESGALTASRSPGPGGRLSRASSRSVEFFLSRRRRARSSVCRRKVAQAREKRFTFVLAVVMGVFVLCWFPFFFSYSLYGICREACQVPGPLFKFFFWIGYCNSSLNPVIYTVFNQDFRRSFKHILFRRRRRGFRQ

[2] = target: Sodium-dependent noradrenaline transporter (Homo sapiens, UniProt P23975); experiment: DRUGMATRIX: Norepinephrine Transporter radioligand binding (ligand: [125I] RTI-55); type: cell membranes, MDCK, Membrane; settings: mdck; Not Active = under 50% inhibition at 10 µM
Sequence of Sodium-dependent noradrenaline transporter (P23975 whole entry): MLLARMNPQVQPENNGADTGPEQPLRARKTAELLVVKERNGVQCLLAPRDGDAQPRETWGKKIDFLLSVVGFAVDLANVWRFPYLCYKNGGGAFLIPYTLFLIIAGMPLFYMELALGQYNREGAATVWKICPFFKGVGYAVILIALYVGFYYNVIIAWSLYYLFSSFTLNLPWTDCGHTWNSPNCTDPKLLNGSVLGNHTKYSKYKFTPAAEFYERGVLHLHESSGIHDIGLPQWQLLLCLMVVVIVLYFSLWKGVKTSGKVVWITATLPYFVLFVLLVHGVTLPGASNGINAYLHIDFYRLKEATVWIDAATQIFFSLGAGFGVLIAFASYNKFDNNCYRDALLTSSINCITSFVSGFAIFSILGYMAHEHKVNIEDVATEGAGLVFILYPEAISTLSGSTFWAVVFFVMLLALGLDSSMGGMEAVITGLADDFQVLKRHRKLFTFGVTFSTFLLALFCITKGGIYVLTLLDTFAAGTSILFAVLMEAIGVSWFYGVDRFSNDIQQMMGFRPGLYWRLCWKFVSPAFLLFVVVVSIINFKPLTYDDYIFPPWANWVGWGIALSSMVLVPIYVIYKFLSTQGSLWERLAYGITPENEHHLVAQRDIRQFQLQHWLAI

[3] = DRUGMATRIX: GABAA, Muscimol, Central radioligand binding (ligand: [3H] Muscimol); type: cell membranes, Rattus norvegicus, Wistar, Brain, Membrane; settings: Not Active = under 50% inhibition at 10 µM
[4] = DRUGMATRIX: Glutamate, NMDA, Agonism radioligand binding (ligand: [3H] CGP-39653); type: cell membranes, Rattus norvegicus, Wistar, Cerebral cortex, Membrane; settings: Not Active = under 50% inhibition at 10 µM
[5] = DRUGMATRIX: Interleukin IL-1 radioligand binding (ligand: [125I] interleukin 1beta); type: cell membranes, Membrane; settings: nih3t3; Not Active = under 50% inhibition at 10 µM
[6] = target: Protein phosphatase 3 catalytic subunit alpha (Homo sapiens, UniProt Q08209); design: species or system Escherichia coli;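 also: inhibition of calcineurin (PP2B) enzyme activity, measured with DiFMUP as the substrate; in other assays of this panel Not Active means under 50% inhibition at 10 µM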
Acetylcholinesterase = Acetylcholinesterase (Homo sapiens, UniProt P22303); experiment: DRUGMATRIX: Acetylcholinesterase enzyme inhibition (substrate: acetylthiocholine); type: cell-based, HEK293; settings: hek293; Not Active = under 50% inhibition at 10 µM
Sequence of Acetylcholinesterase (P22303 whole entry): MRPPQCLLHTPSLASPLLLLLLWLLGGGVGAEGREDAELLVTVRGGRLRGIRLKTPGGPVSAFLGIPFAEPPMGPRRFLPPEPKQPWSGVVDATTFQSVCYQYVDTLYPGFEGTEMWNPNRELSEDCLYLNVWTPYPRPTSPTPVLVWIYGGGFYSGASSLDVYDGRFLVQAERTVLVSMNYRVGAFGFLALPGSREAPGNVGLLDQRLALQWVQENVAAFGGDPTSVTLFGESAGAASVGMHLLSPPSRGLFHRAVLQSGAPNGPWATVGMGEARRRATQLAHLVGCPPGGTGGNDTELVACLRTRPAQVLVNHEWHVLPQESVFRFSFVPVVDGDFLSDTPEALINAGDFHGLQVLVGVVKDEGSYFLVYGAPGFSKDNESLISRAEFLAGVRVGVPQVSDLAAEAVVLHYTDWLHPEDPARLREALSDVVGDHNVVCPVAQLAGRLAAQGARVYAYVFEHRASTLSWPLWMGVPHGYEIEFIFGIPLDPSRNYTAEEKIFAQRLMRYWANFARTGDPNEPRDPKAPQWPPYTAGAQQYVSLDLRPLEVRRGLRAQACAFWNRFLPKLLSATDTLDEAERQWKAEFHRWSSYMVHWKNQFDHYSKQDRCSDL

CC(=O)Nc1c(I)c(NC(C)=O)c(I)c(C(=O)O)c1I [DIATRIZOIC ACID]
Not Active: IC50 [1] | IC50 [2] | IC50 [3] | Ki [3] | IC50 [4] | Ki [4] | IC50 [5] | Ki [5] | IC50 [6] | IC50 (Acetylcholinesterase)

COP(=O)(OC)OC=C(Cl)Cl [DICHLORVOS]
Not Active: IC50 [1] | IC50 [2] | IC50 [3] | Ki [3] | IC50 [4] | Ki [4] | IC50 [5] | Ki [5] | IC50 [6] | IC50 (Acetylcholinesterase)

O=C(O)Cc1ccccc1Nc1c(Cl)cccc1Cl [DICLOFENAC]
Not Active: IC50 [1] | IC50 [2] | IC50 [3] | Ki [3] | IC50 [4] | Ki [4] | IC50 [5] | Ki [5] | IC50 [6] | IC50 (Acetylcholinesterase)

C[C@H]1O[C@@H](O[C@H]2[C@@H](O)C[C@H](O[C@H]3[C@@H](O)C[C@H](O[C@H]4CC[C@@]5(C)[C@H](CC[C@@H]6[C@@H]5CC[C@]5(C)[C@@H](C7=CC(=O)OC7)CC[C@]65O)C4)O[C@@H]3C)O[C@@H]2C)C[C@H](O)[C@@H]1O [DIGITOXIN]
Not Active: IC50 [1] | IC50 [2] | IC50 [3] | Ki [3] | IC50 [4] | Ki [4] | IC50 [5] | Ki [5] | IC50 [6] | IC50 (Acetylcholinesterase)

CCN1CC(CCN2CCOCC2)C(c2ccccc2)(c2ccccc2)C1=O (stereo not given) [DOXAPRAM]
Not Active: IC50 [1] | IC50 [2] | IC50 [3] | Ki [3] | IC50 [4] | Ki [4] | IC50 [5] | Ki [5] | IC50 [6] | IC50 (Acetylcholinesterase)

Cn1c(=O)c2c(ncn2CC2OCCO2)n(C)c1=O [DOXOFYLLINE]
Not Active: IC50 [1] | IC50 [2] | IC50 [3] | Ki [3] | IC50 [4] | Ki [4] | IC50 [5] | Ki [5] | IC50 [6] | IC50 (Acetylcholinesterase)

COc1cccc2c1C(=O)c1c(O)c3c(c(O)c1C2=O)C[C@@](O)(C(=O)CO)C[C@@H]3O[C@H]1C[C@H](N)[C@H](O)[C@H](C)O1 [DOXORUBICIN]
Not Active: IC50 [1] | IC50 [2] | IC50 [3] | Ki [3] | IC50 [4] | Ki [4] | IC50 [5] | Ki [5] | IC50 [6] | IC50 (Acetylcholinesterase)

COc1cccc2c1C(=O)c1c(O)c3c(c(O)c1C2=O)C[C@@](O)(C(=O)CO)C[C@@H]3O[C@H]1C[C@H](N)[C@@H](O)[C@H](C)O1 [EPIRUBICIN]
Not Active: IC50 [1] | IC50 [2] | IC50 [3] | Ki [3] | IC50 [4] | Ki [4] | IC50 [5] | Ki [5] | IC50 [6] | IC50 (Acetylcholinesterase)
